{"source": "paper PMC5533298", "about": "(Structure (London, England : 1993), 2017)", "assay_in_all_cases": "absorbance of p-nitrophenol at […] nm", "type_in_all_cases": "biochemical", "key": {"PmGUS": {"biological_target": "T1, PmGUS (Parabacteroides merdae, UniProt K5ZWV5)", "T1 sequence (K5ZWV5 20-826)": "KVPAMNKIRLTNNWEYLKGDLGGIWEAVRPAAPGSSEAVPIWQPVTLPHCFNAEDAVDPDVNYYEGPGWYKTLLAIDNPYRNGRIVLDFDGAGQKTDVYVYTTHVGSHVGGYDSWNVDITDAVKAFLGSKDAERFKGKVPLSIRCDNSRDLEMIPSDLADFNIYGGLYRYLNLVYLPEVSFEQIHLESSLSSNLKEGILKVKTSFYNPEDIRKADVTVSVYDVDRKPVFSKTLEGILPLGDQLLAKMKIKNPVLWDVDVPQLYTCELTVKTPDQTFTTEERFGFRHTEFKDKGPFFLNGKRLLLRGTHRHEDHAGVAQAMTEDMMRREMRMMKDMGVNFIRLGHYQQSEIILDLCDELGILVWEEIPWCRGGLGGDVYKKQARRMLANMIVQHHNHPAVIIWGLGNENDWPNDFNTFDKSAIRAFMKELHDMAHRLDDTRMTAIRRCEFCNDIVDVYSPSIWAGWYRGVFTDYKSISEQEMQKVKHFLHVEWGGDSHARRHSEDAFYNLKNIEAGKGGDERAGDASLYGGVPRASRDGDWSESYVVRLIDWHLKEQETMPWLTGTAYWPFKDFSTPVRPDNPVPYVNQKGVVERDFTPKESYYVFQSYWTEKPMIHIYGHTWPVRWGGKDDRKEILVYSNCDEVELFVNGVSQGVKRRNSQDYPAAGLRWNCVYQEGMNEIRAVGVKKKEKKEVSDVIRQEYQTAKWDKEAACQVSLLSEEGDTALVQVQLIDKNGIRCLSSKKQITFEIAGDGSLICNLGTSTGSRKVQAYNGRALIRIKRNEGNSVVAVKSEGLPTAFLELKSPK", "conditions": "800 uM PNPG, optimal pH, 37 C, 50 mM HEPES"}, "BuGUS": {"biological_target": "T2, BuGUS (Bacteroides uniformis, UniProt A0A078SUX9)", "T2 sequence (A0A078SUX9 32-886 limits assumed)": "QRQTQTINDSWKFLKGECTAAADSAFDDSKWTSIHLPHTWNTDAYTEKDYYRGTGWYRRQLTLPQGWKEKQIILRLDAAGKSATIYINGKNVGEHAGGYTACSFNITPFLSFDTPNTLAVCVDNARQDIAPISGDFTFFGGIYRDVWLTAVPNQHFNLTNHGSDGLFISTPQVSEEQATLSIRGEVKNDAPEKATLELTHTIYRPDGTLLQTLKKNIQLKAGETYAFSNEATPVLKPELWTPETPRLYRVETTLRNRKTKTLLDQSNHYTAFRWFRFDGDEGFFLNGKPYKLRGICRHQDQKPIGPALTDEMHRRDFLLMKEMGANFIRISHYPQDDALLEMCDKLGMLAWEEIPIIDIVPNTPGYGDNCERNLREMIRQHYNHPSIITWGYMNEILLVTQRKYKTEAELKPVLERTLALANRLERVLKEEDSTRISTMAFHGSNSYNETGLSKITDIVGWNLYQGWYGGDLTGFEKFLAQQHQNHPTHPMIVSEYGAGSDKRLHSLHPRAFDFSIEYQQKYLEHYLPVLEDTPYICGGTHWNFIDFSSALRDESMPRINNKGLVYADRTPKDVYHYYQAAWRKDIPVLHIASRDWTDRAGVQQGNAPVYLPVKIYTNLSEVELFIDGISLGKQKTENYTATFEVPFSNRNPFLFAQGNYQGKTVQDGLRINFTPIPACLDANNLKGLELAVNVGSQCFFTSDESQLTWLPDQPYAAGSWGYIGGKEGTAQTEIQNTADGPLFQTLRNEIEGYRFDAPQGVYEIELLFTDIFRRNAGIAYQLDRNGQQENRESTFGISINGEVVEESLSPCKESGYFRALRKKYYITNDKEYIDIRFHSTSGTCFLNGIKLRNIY", "conditions": "800 uM PNPG, optimal pH, 37 C, 50 mM HEPES"}, "EcGUS": {"biological_target": "EcGUS (Escherichia coli, UniProt P05804)", "sequence (P05804 whole entry)": "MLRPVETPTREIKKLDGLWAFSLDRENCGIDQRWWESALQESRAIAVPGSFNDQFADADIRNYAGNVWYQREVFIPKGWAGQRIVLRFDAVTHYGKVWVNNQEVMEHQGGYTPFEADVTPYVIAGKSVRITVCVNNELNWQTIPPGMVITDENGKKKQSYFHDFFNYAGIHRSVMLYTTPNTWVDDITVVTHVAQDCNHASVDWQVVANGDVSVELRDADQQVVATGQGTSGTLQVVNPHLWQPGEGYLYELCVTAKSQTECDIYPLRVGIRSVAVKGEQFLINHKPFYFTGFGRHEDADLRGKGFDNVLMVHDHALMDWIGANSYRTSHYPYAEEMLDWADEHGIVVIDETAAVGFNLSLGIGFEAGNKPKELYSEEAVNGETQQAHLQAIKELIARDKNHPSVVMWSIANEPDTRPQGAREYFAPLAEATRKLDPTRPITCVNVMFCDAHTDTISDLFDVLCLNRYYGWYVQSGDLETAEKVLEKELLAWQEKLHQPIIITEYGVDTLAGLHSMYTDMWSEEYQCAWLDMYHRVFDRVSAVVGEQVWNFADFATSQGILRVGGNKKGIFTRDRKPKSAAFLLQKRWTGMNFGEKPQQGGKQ", "conditions": "800 uM PNPG, optimal pH (broad, up to 7.4), 37 C, 50 mM HEPES"}, "BfGUS": {"biological_target": "BfGUS (Bacteroides fragilis, UniProt Q5LIC7)", "sequence (Q5LIC7 38-693)": "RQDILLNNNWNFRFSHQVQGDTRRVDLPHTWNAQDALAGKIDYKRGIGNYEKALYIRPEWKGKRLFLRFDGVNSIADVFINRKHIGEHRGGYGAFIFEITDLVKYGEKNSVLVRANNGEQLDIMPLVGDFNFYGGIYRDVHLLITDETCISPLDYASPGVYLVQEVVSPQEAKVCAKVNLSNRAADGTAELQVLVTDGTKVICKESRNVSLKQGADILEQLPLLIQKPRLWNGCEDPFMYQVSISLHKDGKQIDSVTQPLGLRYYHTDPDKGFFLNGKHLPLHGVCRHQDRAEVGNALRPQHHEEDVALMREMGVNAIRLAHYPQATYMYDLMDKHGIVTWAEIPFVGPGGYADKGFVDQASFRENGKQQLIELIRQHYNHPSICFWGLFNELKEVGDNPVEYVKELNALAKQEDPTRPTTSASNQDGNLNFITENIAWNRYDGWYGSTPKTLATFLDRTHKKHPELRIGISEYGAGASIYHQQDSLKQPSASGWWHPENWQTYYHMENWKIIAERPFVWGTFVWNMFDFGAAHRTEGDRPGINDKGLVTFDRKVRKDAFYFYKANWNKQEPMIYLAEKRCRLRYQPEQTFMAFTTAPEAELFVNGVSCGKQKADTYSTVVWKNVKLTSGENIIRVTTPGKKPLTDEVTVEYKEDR", "conditions": "800 uM PNPG, optimal pH, 37 C, 50 mM HEPES"}, "EeGUS": {"biological_target": "T3, EeGUS (Lachnospira eligens, UniProt C4Z6Z2)", "T3 sequence (C4Z6Z2 1-611)": "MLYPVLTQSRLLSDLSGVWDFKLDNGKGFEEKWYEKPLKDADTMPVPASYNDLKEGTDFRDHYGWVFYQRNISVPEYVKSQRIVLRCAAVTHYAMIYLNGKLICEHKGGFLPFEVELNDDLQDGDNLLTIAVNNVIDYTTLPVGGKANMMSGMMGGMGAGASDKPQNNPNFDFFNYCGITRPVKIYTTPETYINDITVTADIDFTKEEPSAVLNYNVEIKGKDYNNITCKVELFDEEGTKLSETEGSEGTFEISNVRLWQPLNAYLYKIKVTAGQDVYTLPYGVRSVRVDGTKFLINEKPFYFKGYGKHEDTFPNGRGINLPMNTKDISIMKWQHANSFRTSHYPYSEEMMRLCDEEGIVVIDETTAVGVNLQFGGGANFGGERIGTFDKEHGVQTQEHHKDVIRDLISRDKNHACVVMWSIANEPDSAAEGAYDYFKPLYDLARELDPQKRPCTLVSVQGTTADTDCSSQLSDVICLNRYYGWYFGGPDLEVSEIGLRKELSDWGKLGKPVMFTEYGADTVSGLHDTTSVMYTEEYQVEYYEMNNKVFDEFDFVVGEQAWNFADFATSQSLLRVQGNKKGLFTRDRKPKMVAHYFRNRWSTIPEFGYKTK", "conditions": "800 uM PNPG, pH 6.5, 37 C, 50 mM HEPES"}, "BdGUS": {"biological_target": "T4, BdGUS (Phocaeicola dorei, UniProt Z9QL54SLC8)", "T4 sequence (Z9QL54SLC8 25-879)": "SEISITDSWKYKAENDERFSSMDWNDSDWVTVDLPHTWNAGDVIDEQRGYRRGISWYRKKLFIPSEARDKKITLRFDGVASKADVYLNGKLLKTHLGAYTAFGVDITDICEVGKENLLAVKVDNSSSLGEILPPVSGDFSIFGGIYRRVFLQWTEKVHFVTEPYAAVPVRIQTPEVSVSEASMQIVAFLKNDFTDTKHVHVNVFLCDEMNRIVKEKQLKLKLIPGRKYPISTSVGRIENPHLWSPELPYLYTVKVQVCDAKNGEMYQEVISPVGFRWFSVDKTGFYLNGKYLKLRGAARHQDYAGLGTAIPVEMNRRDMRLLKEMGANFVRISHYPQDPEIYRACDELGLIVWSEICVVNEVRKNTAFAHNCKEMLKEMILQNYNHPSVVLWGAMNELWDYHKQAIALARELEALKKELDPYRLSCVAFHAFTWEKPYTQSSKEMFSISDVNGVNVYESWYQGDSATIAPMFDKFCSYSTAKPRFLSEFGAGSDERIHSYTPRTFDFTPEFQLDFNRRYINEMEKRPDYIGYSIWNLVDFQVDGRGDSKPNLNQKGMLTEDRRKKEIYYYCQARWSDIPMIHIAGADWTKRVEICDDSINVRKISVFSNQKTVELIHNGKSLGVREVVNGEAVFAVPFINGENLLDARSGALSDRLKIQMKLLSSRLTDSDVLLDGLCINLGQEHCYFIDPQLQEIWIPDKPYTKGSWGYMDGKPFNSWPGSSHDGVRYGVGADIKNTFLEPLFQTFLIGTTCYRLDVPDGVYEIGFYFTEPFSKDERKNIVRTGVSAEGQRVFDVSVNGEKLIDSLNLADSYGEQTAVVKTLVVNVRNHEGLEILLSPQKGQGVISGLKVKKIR", "conditions": "800 uM PNPG, optimal pH, 37 C, 50 mM HEPES"}}}
{"compound": "O=C(O)[C@H]1O[C@@H](Oc2ccc([N+](=O)[O-])cc2)[C@H](O)[C@@H](O)[C@@H]1O", "note": "[PNPG]", "values": [{"measurement": "absorbance of p-nitrophenol at 410 nm", "setting": "PmGUS", "value": "PNPG kinetic studies with each enzyme at its optimum pH"}, {"measurement": "absorbance of p-nitrophenol at 410 nm", "setting": "BuGUS", "value": "PNPG kinetic studies with each enzyme at its optimum pH"}, {"measurement": "absorbance of p-nitrophenol at 410 nm", "setting": "EcGUS", "value": "E. coli and Eu. eligens GUS are remarkably efficient at PNPG processing"}, {"measurement": "absorbance of p-nitrophenol at 410 nm", "setting": "BfGUS", "value": "PNPG kinetic studies with each enzyme at its optimum pH"}, {"measurement": "absorbance of p-nitrophenol at 410 nm", "setting": "EeGUS", "value": "E. coli and Eu. eligens GUS are remarkably efficient at PNPG processing"}, {"measurement": "absorbance of p-nitrophenol at 410 nm", "setting": "BdGUS", "value": "PNPG kinetic studies with each enzyme at its optimum pH"}]}
